Test results as given in PubChem BioAssay (NCI).
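All cell lines were grown in 96-well plates and treated with compound for 48 hours. At the GI50, growth is halved. The concentration for full growth arrest is given as TGI.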

Assays:
Assay in all cases: growth of human tumour cells (NCI), 48 h
[1] = system: T-47D breast
[2] = system: UO-31 renal
[3] = system: RPMI-8226 leukemia
[4] = system: SK-MEL-5 melanoma
[5] = system: EKVX NSCLC
[6] = system: NCI-H522 lung
[7] = system: SNB-19 CNS
[8] = system: HCC-2998 colon
[9] = system: NCI-H460 lung
[10] = system: COLO 205 colon
[11] = system: SNB-75 CNS
[12] = system: HCT-116 colon
[13] = system: OVCAR-8 ovarian
[14] = system: NCI/ADR-RES ovarian
[15] = system: MDA-MB-435
[16] = system: HS 578T breast
[17] = system: KM12 colon
[18] = system: DU-145 prostate
[19] = system: PC-3 prostate
[20] = system: HOP-92 NSCLC
[21] = system: SF-539 CNS
[22] = system: SF-268 CNS
[23] = system: A498 renal
[24] = system: MALME-3M melanoma
[25] = system: LOX IMVI melanoma
[26] = system: MOLT-4 leukemia
[27] = system: SW-620 colon
[28] = system: M14 melanoma
[29] = system: CCRF-CEM leukemia
[30] = system: SF-295 CNS
[31] = system: SK-MEL-28 melanoma
[32] = system: MDA-MB-231 breast
[33] = system: NCI-H226 lung
[34] = system: K-562 leukemia
[35] = system: 786-0 renal
[36] = system: UACC-62 melanoma
[37] = system: OVCAR-4 ovarian
[38] = system: HCT-15 colon
[39] = system: SN12C renal
[40] = system: UACC-257 melanoma
[41] = system: OVCAR-3 ovarian
[42] = system: OVCAR-5 ovarian
[43] = system: SK-OV-3 ovarian
[44] = system: CAKI-1 renal
[45] = system: ACHN renal
[46] = system: BT-549 breast
[47] = system: TK-10 renal
[48] = system: HT29 colon
[49] = system: HL-60(TB) leukemia
[50] = system: HOP-62 NSCLC
[51] = system: MCF7 breast
[52] = system: NCI-H23 lung
[53] = system: A549 NSCLC
[54] = system: RXF 393 renal
[55] = system: U251 CNS
[56] = system: IGROV1 ovarian

With `CN1C(=O)C23CC4(C56CC78SSC(CO)(C(=O)N7C5Nc5ccccc56)N(C)C8=O)c5ccccc5NC4N2C(=O)C1(CO)SS3` (configuration not stated) the GI50 [1] was 21.3 nM, the TGI [1] was 135 nM and the GI50 [2] was 111 nM. The TGI [2] was 342 nM, the GI50 [3] was 56.3 nM and the TGI [3] was 3160 nM. The GI50 [4] was 39.3 nM, the TGI [4] was 112 nM and the GI50 [5] was 89.2 nM. For the same molecule, the TGI [5] was 526 nM, the GI50 [6] was 115 nM and the TGI [6] was 329 nM. The GI50 [7] was 192 nM, the TGI [7] was 643 nM and the GI50 [8] was 46 nM. For the same molecule, the TGI [8] was 132 nM, the GI50 [9] was 52.3 nM and the TGI [9] was 191 nM. It also gave a GI50 [10] of 19.5 nM, a TGI [10] of 76 nM and a GI50 [11] of 99.3 nM. The TGI [11] was 289 nM, the GI50 [12] was 32.9 nM and the TGI [12] was 313 nM. It also gave a GI50 [13] of 23 nM, a TGI [13] of 185 nM and a GI50 [14] of 48.2 nM. The TGI [14] was 189 nM, the GI50 [15] was 68.5 nM and the TGI [15] was 146 nM. It also gave a GI50 [16] of 52.9 nM, a TGI [16] of 191 nM and a GI50 [17] of 54.4 nM. The TGI [17] was 220 nM, the GI50 [18] was 29.6 nM and the TGI [18] was 195 nM. The GI50 [19] was 38.8 nM, the TGI [19] was 537 nM and the GI50 [20] was 103 nM. For the same molecule, the TGI [20] was 461 nM, the GI50 [21] was 29.1 nM and the TGI [21] was 64.9 nM. It also gave a GI50 [22] of 80.7 nM, a TGI [22] of 351 nM and a GI50 [23] of 74.8 nM. For the same molecule, the TGI [23] was 155 nM, the GI50 [24] was 17.7 nM and the TGI [24] was 74.5 nM. It also gave a GI50 [25] of 52.1 nM, a TGI [25] of 243 nM and a GI50 [26] of 34.3 nM. For the same molecule, the TGI [26] was 3500 nM, the GI50 [27] was 37.2 nM and the TGI [27] was 167 nM. For the same molecule, the GI50 [28] was 71.7 nM, the TGI [28] was 205 nM and the GI50 [29] was 21.9 nM. It also gave a TGI [29] of 3040 nM, a GI50 [30] of 49.7 nM and a TGI [30] of 135 nM. It also gave a GI50 [31] of 23.5 nM, a TGI [31] of 69.5 nM and a GI50 [32] of 130 nM. It also gave a TGI [32] of 653 nM, a GI50 [33] of 130 nM and a TGI [33] of 359 nM. It also gave a GI50 [34] of 524 nM, a TGI [34] of 3640 nM and a GI50 [35] of 78.6 nM. For the same molecule, the TGI [35] was 172 nM, the GI50 [36] was 62.2 nM and the TGI [36] was 153 nM. For the same molecule, the GI50 [37] was 57.6 nM, the TGI [37] was 237 nM and the GI50 [38] was 35.3 nM. The TGI [38] was 411 nM, the GI50 [39] was 124 nM and the TGI [39] was 673 nM. The GI50 [40] was 37.2 nM, the TGI [40] was 113 nM and the GI50 [41] was 50.7 nM. For the same molecule, the TGI [41] was 218 nM, the GI50 [42] was 81.3 nM and the TGI [42] was 294 nM. It also gave a GI50 [43] of 103 nM, a TGI [43] of 291 nM and a GI50 [44] of 56.1 nM. The TGI [44] was 290 nM, the GI50 [45] was 71.5 nM and the TGI [45] was 443 nM. It also gave a GI50 [46] of 106 nM, a TGI [46] of 347 nM and a GI50 [47] of 119 nM. For the same molecule, the TGI [47] was 359 nM, the GI50 [48] was 17.6 nM and the TGI [48] was 162 nM. For the same molecule, the GI50 [49] was 85.3 nM, the TGI [49] was 50000 nM and the GI50 [50] was 124 nM. For the same molecule, the TGI [50] was 368 nM, the GI50 [51] was 14.5 nM and the TGI [51] was 122 nM. The GI50 [52] was < 31.5 nM, the TGI [52] was 76.4 nM and the GI50 [53] was 48 nM. It also gave a TGI [53] of 283 nM, a GI50 [54] of 12.9 nM and a TGI [54] of 42 nM. The GI50 [55] was 46.4 nM, the TGI [55] was 193 nM and the GI50 [56] was 98.7 nM. The TGI [56] was 279 nM.
